Article PMC5931576, “Allosteric modulation of the farnesoid X receptor by a small molecule” (Scientific Reports, 2018)

Assays:
c-Kit = assay: Kinase inhibition assay (radiometric or HTRF); assay type: biochemical
Abl = assay: Kinase inhibition assay (radiometric or HTRF); assay type: biochemical
human FXR = biological target: T1, human FXR (Homo sapiens, UniProt Q96RI1); assay: Full-length FXR transactivation (reporter gene) assay in HeLa cells; assay type: cell-based
T1 construct: expressed in transfected cells; host or cells: HeLa
T1 sequence (Q96RI1 1-486): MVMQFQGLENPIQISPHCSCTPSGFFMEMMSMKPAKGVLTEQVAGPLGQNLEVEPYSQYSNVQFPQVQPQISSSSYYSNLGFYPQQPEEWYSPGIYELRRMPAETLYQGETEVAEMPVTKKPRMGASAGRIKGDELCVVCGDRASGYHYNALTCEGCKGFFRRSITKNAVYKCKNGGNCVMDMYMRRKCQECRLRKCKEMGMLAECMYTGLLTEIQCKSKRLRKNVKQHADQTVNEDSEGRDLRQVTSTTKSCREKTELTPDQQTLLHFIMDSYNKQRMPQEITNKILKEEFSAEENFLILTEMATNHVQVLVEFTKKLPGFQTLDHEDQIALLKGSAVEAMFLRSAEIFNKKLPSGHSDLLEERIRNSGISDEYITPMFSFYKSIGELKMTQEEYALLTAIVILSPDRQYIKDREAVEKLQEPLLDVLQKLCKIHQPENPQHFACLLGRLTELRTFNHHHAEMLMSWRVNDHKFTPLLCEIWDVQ
T1 sequence (P19793 1-462 partner): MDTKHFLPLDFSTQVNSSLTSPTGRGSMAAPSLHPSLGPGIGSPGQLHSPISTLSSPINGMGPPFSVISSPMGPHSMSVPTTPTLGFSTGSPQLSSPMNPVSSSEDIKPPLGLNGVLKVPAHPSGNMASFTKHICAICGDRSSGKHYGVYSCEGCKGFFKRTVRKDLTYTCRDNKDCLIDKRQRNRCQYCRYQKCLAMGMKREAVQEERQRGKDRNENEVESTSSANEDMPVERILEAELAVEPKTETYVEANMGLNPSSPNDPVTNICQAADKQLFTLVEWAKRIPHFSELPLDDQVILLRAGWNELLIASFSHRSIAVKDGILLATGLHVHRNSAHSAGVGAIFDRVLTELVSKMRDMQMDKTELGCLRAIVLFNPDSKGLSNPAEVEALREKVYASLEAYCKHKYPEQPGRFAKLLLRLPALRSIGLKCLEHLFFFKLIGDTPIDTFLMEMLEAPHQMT

HepG2 cells = assay: WST-1 assay; assay type: cell-based; details: 48 h (or 24 h)
Protocol: In vitro biological evaluation […]
WST-1 assay (Roche Diagnostics International AG, Rotkreuz, Schweiz) was performed according to manufacturer’s protocol and as described previously. In brief, HepG2 cells were seeded in DMEM high glucose, supplemented with SP (1 mM), penicillin (100 U/mL), streptomycin (100 µg/mL) and 10% FCS in 96-well plates (3∙10^4 cells/well). After 24 h, medium was changed to DMEM high glucose, supplemented with penicillin (100 U/mL), streptomycin (100 µg/mL) and 1% charcoal stripped FCS and cells were incubated with 4 or 16 (final […]
and DMEM/1% DMSO as negative controls. After 48 h (or 24 h), WST reagent (Roche Diagnostics International AG) was added to each well according to manufacturer’s instructions. After 45 min incubation, absorption (450 nm/ reference: 620 nm) was determined with a Tecan Infinite M200 luminometer (Tecan Deutschland GmbH). Each experiment was repeated at least three times in triplicates. […]

[1] = tested on: PPARα/γ/δ, LXRα/β, RXRα/β/γ, RARα/β/γ, VDR and CAR; assay: Hybrid reporter gene assays for nuclear receptors related to FXR; assay type: cell-based, human
Source text: The Gal4-fusion receptor plasmids pFA-CMV-hPPARα-LBD[34], pFA-CMV-hPPARγ-LBD[34], pFA-CMV-hPPARδ-LBD[34], pFA-CMV-hLXRα-LBD[35], pFA-CMV-hLXRβ-LBD[35], pFA-CMV-hRXRα-LBD[36], pFA-CMV-hRXRβ-LBD[36], pFA-CMV-hRXRγ-LBD[36], pFA-CMV-hRARα-LBD[36], pFA-CMV-hRARβ-LBD[36], pFA-CMV-hRARγ-LBD[36], pFA-CMV-hVDR-LBD[36] and pFA-CMV-hCAR-LBD[36] coding for the hinge region and ligand binding domain (LBD) of the canonical isoform of the respective nuclear receptor have been reported previously. pFR-Luc (Stratagene) was used as reporter plasmid and pRL-SV40 (Promega) for normalization of transfection efficiency and cell growth.
HEK293T cells were grown in DMEM high glucose, supplemented with 10% FCS, sodium pyruvate (1 mM), penicillin (100 U/mL) and streptomycin (100 μg/mL) at 37 °C and 5% CO2. The day before transfection, HEK293T cells were seeded in 96-well plates (2.5·10^4 cells/well). Before transfection, medium was changed to Opti-MEM without supplements. Transient transfection was carried out using Lipofectamine LTX reagent (Invitrogen) according to the manufacturer’s protocol with pFR-Luc (Stratagene), pRL-SV40 (Promega) and pFA-CMV-hNR-LBD. […] Luminescence was measured with an Infinite M200 luminometer (Tecan Deutschland GmbH) or a Tecan Spark 10 M luminometer (Tecan). […]

BSEP mRNA = assay: FXR target gene quantification (qRT-PCR) in HepG2 cells: BSEP; assay type: cell-based; details: for BSEP mRNA, mean fold activation compared to DMSO (0.1%): HepG2, 24 h

CS(=O)(=O)O.CS(=O)(=O)O.CS(=O)(=O)O.CS(=O)(=O)O.Cc1ccc(NC(=O)c2ccc(Cl)cc2)cc1Nc1nccc(-c2cccnc2)n1.Cc1ccc(NC(=O)c2ccc(Cl)cc2)cc1Nc1nccc(-c2cccnc2)n1.O.O.O [compound 16, 4-Chloro-N-(4-methyl-3-(4-(pyridin-3-yl)pyrimidin-2-ylamino)phenyl)benzamide dimesylate-sesquihydrate]
Inhibition of c-Kit (c-Kit): potent inhibitor
Inhibition of Abl (Abl): potent inhibitor
Effect on transactivation efficacy of FXR agonists 1–3 (human FXR; 16 at 10 µM): significantly enhances
Emax (human FXR; HeLa, read-out: hFXR: max. rel. act.): 8.4%
EC50 (human FXR; full-length reporter gene assay, HeLa cells, mean ± SEM, n ≥ 3, read-out: hFXR: EC50): 1.9 ± 0.6 nM
Effect on EC50-value of 1 (human FXR; in presence of 0.1 µM 16): not affected
Increase of maximum relative activation of 1 (human FXR; in presence of 0.1 µM 16): about 50%
WST-1, mean percent of untreated control (HepG2 cells; HepG2, 0.1 µM): 113 ± 1%
WST-1, mean percent of untreated control (HepG2 cells; HepG2, 0.3 µM): 107 ± 7%
WST-1, mean percent of untreated control (HepG2 cells; HepG2, 1 µM): 112 ± 3%
WST-1, mean percent of untreated control (HepG2 cells; HepG2, 10 µM): 92 ± 2%
WST-1, mean percent of untreated control (HepG2 cells; HepG2, 50 µM): 87 ± 2%
WST-1, mean percent of untreated control (HepG2 cells; HepG2, 16 (0.3 µM) + 1 (50 µM)): 93 ± 7%
Selectivity over nuclear receptors related to FXR [1]: high selectivity
CDCA-induced BSEP mRNA expression compared to 1 alone (BSEP mRNA; HepG2, 16 co-incubated with 1): about 3 fold
BSEP mRNA, mean fold activation compared to DMSO (0.1%) (BSEP mRNA; 0.3 µM alone): 2.64 ± 0.07
BSEP mRNA, mean fold activation compared to DMSO (0.1%) (BSEP mRNA; 16 (0.3 µM) + 1 (20 µM)): 4.56 ± 0.77
BSEP mRNA, mean fold activation compared to DMSO (0.1%) (BSEP mRNA; 16 (0.3 µM) + 1 (50 µM)): 29.37 ± 3.32
